Measured values taken from patent US6829540B1, “Drug discovery using multiple membrane mimetic affinities” (priority 1997, dated 2004).
Like-named read-outs stand apart in the source and are kept apart here.

What was measured:
[1] = cited from earlier work
[2] = HPLC membrane binding on immobilized artificial membrane IAM.SM; type: physicochemical; settings: for Membrane affinity IAM.SM: Ln weighted, Table 3; for Membrane binding properties IAM.SM: Table 1
Method: (§1) The analysis is made by pattern matching membrane binding constants measured on immobilized artificial membrane columns in a high performance liquid chromatography system. Two or more immobilized artificial membrane chromatographic columns are used. Each test compound is injected and chromatographed on each column and the peak width and the peak time of the test compound is recorded and normalized to an internal or external standard. Thus experimentally measured selectivity values (αk′=k′/k′ standard) and normalized standard deviations (αsd=σ/σstandard) were calculated for both the test compounds and compounds of known biological properties. Pattern matching using vector calculus, multivariate analysis or principal component analysis of the αk′ and αsd values of the test compound and the control compounds allows comparison of the membrane binding properties of the test compounds and each of the control compounds or, if the control compounds all have a common biological activity/property, average or mean membrane binding values of the set of control compounds for each membrane surface.
(§2) Membrane binding constants (k′ values) are calculated in accordance with the formula k′=(tr−t0)/t0 wherein tr is the retention time and t0 is the dead time obtained from each injection; however, t0 in the denominator was obtained by averaging the experimentally determined t0 from all injections for each day the data are collected.
(§3) The use of chromatography on immobilized artificial membranes provides data characteristic of both equilibrium binding to the respective membrane mimetic surface (k′ values) and the kinetics of mass transfer between the immobilized artificial membrane surface and the mobile phase (i.e. δ values). […] This unavoidable variation in the experimentally determined k′ and δ values for each test compound and each control compound is eliminated, for pattern matching purposes, by normalizing k′ and δ values to an internal or external standard compound chromatographed on each immobilized artificial membrane column. Thus k′ and δ values for the test compounds are each divided by the respective k′ and δ values of the standard to calculate αk′ and αsd, the selectivity values and normalized standard deviations, respectively. For k′ values, α denotes the selectivity of the immobilized artificial membrane chromatographic surface for molecular recognition of the analyte; α is a thermodynamic property and corresponds to a ratio of membrane partition coefficients.
(§4) Thus, in one embodiment of this invention the membrane binding properties of six hallucinogens were measured on immobilized artificial membranes (IAMs) prepared from phosphatidylcholine (IAM.PC), phosphatidylserine (IAM.PS), phosphatidylethanolamine (IAM.PE), and sphingomyelin (IAM.SM). Mean vectors were calculated for several therapeutic classes of compounds. The calculated mean vector (i.e., the average vector representing a group of compounds with similar biological activity) is shown in Table 1 for hallucinogenic compounds.
(§5) In one embodiment of this invention membrane binding constants are measured by injecting the drugs into high performance liquid chromatographs (HPLC) using immobilized artificial membrane (IAM) columns using the following IAM stationary phases:
(§6) ^esterIAM.PC^C10/C3, ^esterIAM.PE^C10/C3, ^esterIAM.PS^C10/C3, and ^esterIAM.SM^C10/C3
(§7) The peak position of the drug in the chromatogram is a measure of the affinity of the compound for the immobilized membrane surface. The retention time (peak time) was used to calculate the capacity factor, k′, of the compound for the IAM surface. Capacity factors are proportional to equilibrium membrane binding constants K according to
(§8) Membrane binding data (numerical values relating to interaction with membranes or membrane mimetic surfaces) were obtained using HPLC chromatography on a multiplicity of membrane mimetic surfaces, preferably immobilized artificial membranes (IAMs). […]

[3] = HPLC membrane binding on immobilized artificial membrane IAM.PC; type: physicochemical; settings: for Membrane affinity IAM.PC: Ln weighted, Table 3; for Membrane binding properties IAM.PC: Table 1
Method: as §1, §2, §3, §4, §5, §6, §7, §8

[4] = HPLC membrane binding on immobilized artificial membrane IAM.PS; type: physicochemical; settings: for Membrane affinity IAM.PS: Ln weighted, Table 3; for Membrane binding properties IAM.PS: Table 1
Method: as §1, §2, §3, §4, §5, §6, §7, §8

[5] = HPLC membrane binding on immobilized artificial membrane IAM.PE; type: physicochemical; settings: for Membrane affinity IAM.PE: Ln weighted, Table 3; for Membrane binding properties IAM.PE: Table 1
Method: as §1, §2, §3, §4, §5, §6, §7, §8

[6] = Table 7, compounds completely absorbed
[7] = Table 8, high oral absorption training set
[8] = Table 6, low oral absorption training set
[9] = Table 9, compounds with low oral absorption

## CCN1CCCC1CNC(=O)c1cc(S(N)(=O)=O)ccc1OC (stereo not drawn) [sulpiride]
[1]; in vivo, po
  Oral Absorption (%): 36%

## O=C1NC(=O)C(c2ccccc2)(c2ccccc2)N1 [phenytoin]
[1]; [6]
  Oral Absorption (%): 100%
[1]; [7]
  Oral Absorption (%): 100%

## CCC1(c2ccccc2)C(=O)NC(=O)NC1=O [phenobarbital]
[1]; [6]
  Oral Absorption (%): 100%
[1]; [7]
  Oral Absorption (%): 100%

## COc1cc(CC(C)N)c(OC)cc1I (stereo not drawn) [DOI]
[2]
  Membrane affinity IAM.SM: 2.14
[3]
  Membrane affinity IAM.PC: 2.61
[4]
  Membrane affinity IAM.PS: 6.13
[5]
  Membrane affinity IAM.PE: 3.73

## CCOC(=O)C(C)(C)Oc1ccc(Cl)cc1 [clofibrate]
[1]; [6]
  Oral Absorption (%): 95%
[1]; [7]
  Oral Absorption (%): 95%

## COc1cc([C@@H]2c3cc4c(cc3[C@@H](O[C@@H]3O[C@@H]5CO[C@@H](C)O[C@H]5[C@H](O)[C@H]3O)[C@H]3COC(=O)[C@H]23)OCO4)cc(OC)c1O [etoposide]
[1]; [8]
  Oral Absorption (%): 50%
[1]; [9]
  Oral Absorption (%): 50%

## Clc1cccc(Cl)c1N=C1NCCN1 [clonidine]
[1]; [6]
  Oral Absorption (%): 95%
[1]; [7]
  Oral Absorption (%): 95%

## CN(C)CCc1c[nH]c2cccc(O)c12 [psilocin]
[2]
  Membrane affinity IAM.SM: 0.502
  Membrane binding properties IAM.SM: 7.532
[3]
  Membrane affinity IAM.PC: 0.900
  Membrane binding properties IAM.PC: 4.656
[4]
  Membrane affinity IAM.PS: 2.80
  Membrane binding properties IAM.PS: 4.941
[5]
  Membrane affinity IAM.PE: 1.79
  Membrane binding properties IAM.PE: 4.818

## COc1cc(CC(C)N)c(OC)cc1Br (stereo not drawn) [2,5-dimethoxy-4-bromoamphetamine]
[2]
  Membrane affinity IAM.SM: 1.62
  Membrane binding properties IAM.SM: 20.970
[3]
  Membrane affinity IAM.PC: 2.07
  Membrane binding properties IAM.PC: 15.260
[4]
  Membrane affinity IAM.PS: 4.68
  Membrane binding properties IAM.PS: 143.400
[5]
  Membrane affinity IAM.PE: 3.22
  Membrane binding properties IAM.PE: 20.950

## C=CCc1ccccc1OCC(O)CNC(C)C (stereo not drawn) [alprenolol]
[1]; [6]
  Oral Absorption (%): 96%
[1]; [7]
  Oral Absorption (%): 96%

## CCCC(=O)Nc1ccc(OCC(O)CNC(C)C)c(C(C)=O)c1 (stereo not drawn) [acebutolol]
[1]; [8]
  Oral Absorption (%): 37%
[1]; [9]
  Oral Absorption (%): 37%

## COc1cc(CCNC(C)=O)cc(OC)c1OC [n-acetylmescaline]
[2]
  Membrane binding properties IAM.SM: 1.051
[3]
  Membrane binding properties IAM.PC: 0.706
[4]
  Membrane binding properties IAM.PS: 0.736
[5]
  Membrane binding properties IAM.PE: 1.323

## C[C@]12C[C@H](O)[C@H]3[C@@H](CCC4=CC(=O)CC[C@@]43C)[C@@H]1CC[C@@H]2C(=O)CO [corticosterone]
[1]; [6]
  Oral Absorption (%): 100%
[1]; [7]
  Oral Absorption (%): 100%

## CNC1(c2ccccc2Cl)CCCCC1=O (stereo not drawn) [ketamine]
[1]; [8]
  Oral Absorption (%): 20%
[1]; [9]
  Oral Absorption (%): 20%

## O=C1CN=C(c2ccccc2Cl)c2cc([N+](=O)[O-])ccc2N1 [clonazepam]
[1]; [6]
  Oral Absorption (%): 98%
[1]; [7]
  Oral Absorption (%): 98%

## CC(N)Cc1ccc(I)cc1 (stereo not drawn) [p-iodoamphetamine]
[2]
  Membrane binding properties IAM.SM: 32.410
[3]
  Membrane binding properties IAM.PC: 24.880
[4]
  Membrane binding properties IAM.PS: 258.100
[5]
  Membrane binding properties IAM.PE: 33.660

## CNC1=Nc2ccc(Cl)cc2C(c2ccccc2)=[N+]([O-])C1 [chlorodiazepoxide, chlordiazepoxide]
[1]; [6]
  Oral Absorption (%): 100%
[1]; [7]
  Oral Absorption (%): 100%

## COc1cc(CCN)cc(OC)c1OC [mescaline]
[2]
  Membrane affinity IAM.SM: −0.715
  Membrane binding properties IAM.SM: 2.074
[3]
  Membrane affinity IAM.PC: −0.477
  Membrane binding properties IAM.PC: 1.476
[4]
  Membrane affinity IAM.PS: 2.43
  Membrane binding properties IAM.PS: 12.280
[5]
  Membrane affinity IAM.PE: 0.670
  Membrane binding properties IAM.PE: 2.134

## COc1cc(C[C@@H](C)N)c(OC)cc1I [(R)-2,5-dimethoxy-4-iodoamphetamine]
[2]
  Membrane binding properties IAM.SM: 53.41
[3]
  Membrane binding properties IAM.PC: 55.53
[4]
  Membrane binding properties IAM.PS: 260.200
[5]
  Membrane binding properties IAM.PE: 29.76

## CC(N)Cc1ccc2c(c1)OCO2 (stereo not drawn) [MDA, 3,4-methylendioxyamphetamine]
[2]
  Membrane affinity IAM.SM: −0.0647
[3]
  Membrane affinity IAM.PC: 0.298
[4]
  Membrane affinity IAM.PS: 3.28
[5]
  Membrane affinity IAM.PE: 1.32

## CNC(=C[N+](=O)[O-])NCCSCc1ccc(CN(C)C)o1 [ranitidie, ranitidine]
[1]; [8]
  Oral Absorption (%): 50%
[1]; [9]
  Oral Absorption (%): 50%
